IC50 data for one compound are collected here from publication PMC8231992, “Protease Substrate-Independent Universal Assay for Monitoring Digestion of Native Unmodified Proteins” (International Journal of Molecular Sciences, 2021).

Usually IC50 stands for the midpoint of a concentration-inhibition curve. Lower therefore signals higher potency.

In the assay the target is T1, papain (Carica papaya, UniProt P00784).
T1 sequence (P00784 134-345): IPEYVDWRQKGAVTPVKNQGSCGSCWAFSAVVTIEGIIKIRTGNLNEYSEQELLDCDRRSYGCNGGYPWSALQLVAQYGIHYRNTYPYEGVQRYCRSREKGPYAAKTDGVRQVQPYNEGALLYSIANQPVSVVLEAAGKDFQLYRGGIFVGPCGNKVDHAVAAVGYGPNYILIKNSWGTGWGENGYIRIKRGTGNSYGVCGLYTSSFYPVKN
The assay is described as follows: protein-probe time-resolved luminescence digestion assay, heat-denatured carbonic anhydrase substrate ([…] with native substrate). Format: biochemical.

Turning to `CC(C)C[C@H](NC(=O)[C@H]1O[C@@H]1C(=O)O)C(=O)NCCCCN=C(N)N` [E-64], the IC50 is 8.9 ± 0.9 nM.
